Values joined by “and” are separate entries in the source; they are usually repeats but may differ in a detail not shown here. Identical values can stand only once.
Tested on: clinical HIV-1 isolates (AT-101, AT-328, AT-332)
Assay: Hu-PBL-SCID mouse model of human AIDS (HIV-PCR and HIV-culture)
Type: in vivo
[1] = 1 mg/ml in water, average 200 mg/kg/day

Cc1cn([C@H]2C[C@H](N=[N+]=[N-])[C@@H](CO)O2)c(=O)[nH]c1=O [AZT, zidovudine]
Cx+ [1]: 4/8 | PCR+ [1]: 4/10 | PCR+ Cx+ [1]: 4 and 4/8 | PCR+ CxND [1]: 0/2 | PCR+ Cx− [1]: 3 and 4/8 | PCR− Cx− [1]: 0/8 | mice tested HIV-1 negative [1]: 3 of 10 | gp120 on CD7 cells from peritoneal cavities (flow cytometry) (treated Hu-PBL-SCID mice): presence of gp120 on CD7 cells

From patent US6689362B1, “Method for treating T-lineage leukemias and lymphomas using a CD7-specific monoclonal antibody (TXU-7) linked to the pokeweed antiviral protein (PAP)” (priority 1997, dated 2004)
